Measured values published in PubChem BioAssay AID2060624 (Molecular Pharmacology Branch, DTP, NCI, 2025).

Tested on: 217524-143-R1-J4-PDC spheroids with HUVEC/MSC, viability
Test: Anticancer human tumor 217524-143-R1-J4-PDC patient-derived pancreatic carcinoma cell line growth inhibition [CLK]
Details: for IC50: curve of first compound; for viability, T/C: stronger effect = lower value
Summary of the method: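 Patient-derived tumor cells grown as complex spheroids with HUVEC endothelial cells and mesenchymal stem cells, treated with drug combinations. Concentrations descend in half-log steps from near clinical Cmax, or from 10 microM if Cmax unknown.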
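Also: spheroids exposed to agents for seven days before reading.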
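For viability, T/C in this document: 100% = DMSO vehicle control viability.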

Question: How did the IC50 (second compound 0.0316 µM) turn out when `CC(C)CC(NC(=O)C(Cc1ccccc1)NC(=O)c1cnccn1)B(O)O` (centres undefined) + CN1CCN(c2cc(C(=O)Nc3cc4cc(-c5cnn(C)c5)ccc4cn3)ccn2)CC1 was run?
Answer: 3.03 nM

Question: And the IC50 (second compound 0.1 µM)?
Answer: 2.29 nM

Question: And the IC50 (second compound 0.316 µM)?
Answer: < 0.949 nM

Question: And the IC50 (second compound 1 µM)?
Answer: < 0.949 nM

Question: And the IC50 (second compound 3.16 µM)?
Answer: < 0.949 nM

Question: And the IC50 (second compound 10 µM)?
Answer: < 0.949 nM

Question: What about the viability, T/C (second compound 0.0316 µM, first compound 0.000949 µM) of the same compound?
Answer: 89.7%

Question: And the viability, T/C (second compound 0.0316 µM, first compound 0.003 µM)?
Answer: 49.9%

Question: And the viability, T/C (second compound 0.0316 µM, first compound 0.00949 µM)?
Answer: 22.4%

Question: What about the viability, T/C (second compound 0.0316 µM, first compound 0.03 µM) of the same compound?
Answer: 6.55%

Question: What about the viability, T/C (second compound 0.0316 µM, first compound 0.0949 µM) of the same compound?
Answer: 5.49%

Question: What about the viability, T/C (second compound 0.0316 µM, first compound 0.3 µM) of the same compound?
Answer: 2.12%

Question: What about the viability, T/C (second compound 0.1 µM, first compound 0.000949 µM) of the same compound?
Answer: 58.3%

Question: And the viability, T/C (second compound 0.1 µM, first compound 0.003 µM)?
Answer: 47.5%

Question: And the viability, T/C (second compound 0.1 µM, first compound 0.00949 µM)?
Answer: 14.4%

Question: What about the viability, T/C (second compound 0.1 µM, first compound 0.03 µM) of the same compound?
Answer: 5.38%

Question: And the viability, T/C (second compound 0.1 µM, first compound 0.0949 µM)?
Answer: 3.86%

Question: And the viability, T/C (second compound 0.1 µM, first compound 0.3 µM)?
Answer: 2.25%

Question: And the viability, T/C (second compound 0.316 µM, first compound 0.000949 µM)?
Answer: 25%

Question: What about the viability, T/C (second compound 0.316 µM, first compound 0.003 µM) of the same compound?
Answer: 24%

Question: And the viability, T/C (second compound 0.316 µM, first compound 0.00949 µM)?
Answer: 3.44%

Question: What about the viability, T/C (second compound 0.316 µM, first compound 0.03 µM) of the same compound?
Answer: 1.85%

Question: And the viability, T/C (second compound 0.316 µM, first compound 0.0949 µM)?
Answer: 1.33%

Question: What about the viability, T/C (second compound 0.316 µM, first compound 0.3 µM) of the same compound?
Answer: 0.89%

Question: What about the viability, T/C (second compound 1 µM, first compound 0.000949 µM) of the same compound?
Answer: 1.64%

Question: What about the viability, T/C (second compound 1 µM, first compound 0.003 µM) of the same compound?
Answer: 0.62%

Question: And the viability, T/C (second compound 1 µM, first compound 0.00949 µM)?
Answer: 0.77%

Question: What about the viability, T/C (second compound 1 µM, first compound 0.03 µM) of the same compound?
Answer: 0.46%

Question: What about the viability, T/C (second compound 1 µM, first compound 0.0949 µM) of the same compound?
Answer: 0.4%

Question: What about the viability, T/C (second compound 1 µM, first compound 0.3 µM) of the same compound?
Answer: 0.42%

Question: And the viability, T/C (second compound 3.16 µM, first compound 0.000949 µM)?
Answer: 0.67%

Question: What about the viability, T/C (second compound 3.16 µM, first compound 0.003 µM) of the same compound?
Answer: 0.98%

Question: What about the viability, T/C (second compound 3.16 µM, first compound 0.00949 µM) of the same compound?
Answer: 2.38%

Question: What about the viability, T/C (second compound 3.16 µM, first compound 0.03 µM) of the same compound?
Answer: 1.54%

Question: What about the viability, T/C (second compound 3.16 µM, first compound 0.0949 µM) of the same compound?
Answer: 0.63%

Question: And the viability, T/C (second compound 3.16 µM, first compound 0.3 µM)?
Answer: 0.66%

Question: What about the viability, T/C (second compound 10 µM, first compound 0.000949 µM) of the same compound?
Answer: 0.3%

Question: And the viability, T/C (second compound 10 µM, first compound 0.003 µM)?
Answer: 0.19%

Question: And the viability, T/C (second compound 10 µM, first compound 0.00949 µM)?
Answer: 0.47%

Question: And the viability, T/C (second compound 10 µM, first compound 0.03 µM)?
Answer: 0.32%

Question: And the viability, T/C (second compound 10 µM, first compound 0.0949 µM)?
Answer: 0.23%

Question: What about the viability, T/C (second compound 10 µM, first compound 0.3 µM) of the same compound?
Answer: 0.22%

Question: How did the IC50 (second compound 0.0316 µM) turn out when `CC1(C)CCC(CN2CCN(c3ccc(C(=O)NS(=O)(=O)c4ccc(NCC5CCOCC5)c([N+](=O)[O-])c4)c(Oc4cnc5[nH]ccc5c4)c3)CC2)=C(c2ccc(Cl)cc2)C1` + CN1CCN(c2cc(C(=O)Nc3cc4cc(-c5cnn(C)c5)ccc4cn3)ccn2)CC1 was run?
Answer: 5020 nM

Question: And the IC50 (second compound 0.1 µM)?
Answer: 3820 nM

Question: And the IC50 (second compound 0.316 µM)?
Answer: < 31.6 nM

Question: And the IC50 (second compound 1 µM)?
Answer: < 31.6 nM

Question: And the IC50 (second compound 3.16 µM)?
Answer: < 31.6 nM

Question: What about the IC50 (second compound 10 µM) of the same compound?
Answer: < 31.6 nM

Question: What about the viability, T/C (second compound 0.0316 µM, first compound 0.0316 µM) of the same compound?
Answer: 83.2%

Question: What about the viability, T/C (second compound 0.0316 µM, first compound 0.1 µM) of the same compound?
Answer: 68.9%

Question: And the viability, T/C (second compound 0.0316 µM, first compound 0.316 µM)?
Answer: 89.4%

Question: What about the viability, T/C (second compound 0.0316 µM, first compound 1 µM) of the same compound?
Answer: 88.4%

Question: And the viability, T/C (second compound 0.0316 µM, first compound 3.16 µM)?
Answer: 77.1%

Question: What about the viability, T/C (second compound 0.0316 µM, first compound 10 µM) of the same compound?
Answer: 9.4%

Question: What about the viability, T/C (second compound 0.1 µM, first compound 0.0316 µM) of the same compound?
Answer: 55.5%

Question: What about the viability, T/C (second compound 0.1 µM, first compound 0.1 µM) of the same compound?
Answer: 55%

Question: What about the viability, T/C (second compound 0.1 µM, first compound 0.316 µM) of the same compound?
Answer: 55.1%

Question: And the viability, T/C (second compound 0.1 µM, first compound 1 µM)?
Answer: 65.7%

Question: And the viability, T/C (second compound 0.1 µM, first compound 3.16 µM)?
Answer: 60.2%

Question: And the viability, T/C (second compound 0.1 µM, first compound 10 µM)?
Answer: 7.83%

Question: And the viability, T/C (second compound 0.316 µM, first compound 0.0316 µM)?
Answer: 19.1%

Question: What about the viability, T/C (second compound 0.316 µM, first compound 0.1 µM) of the same compound?
Answer: 20.4%

Question: What about the viability, T/C (second compound 0.316 µM, first compound 0.316 µM) of the same compound?
Answer: 21.5%

Question: What about the viability, T/C (second compound 0.316 µM, first compound 1 µM) of the same compound?
Answer: 22.8%

Question: And the viability, T/C (second compound 0.316 µM, first compound 3.16 µM)?
Answer: 20.9%

Question: And the viability, T/C (second compound 0.316 µM, first compound 10 µM)?
Answer: 6.29%

Question: What about the viability, T/C (second compound 1 µM, first compound 0.0316 µM) of the same compound?
Answer: 2.02%

Question: What about the viability, T/C (second compound 1 µM, first compound 0.1 µM) of the same compound?
Answer: 1.96%

Question: And the viability, T/C (second compound 1 µM, first compound 0.316 µM)?
Answer: 1.65%

Question: And the viability, T/C (second compound 1 µM, first compound 1 µM)?
Answer: 1.7%

Question: And the viability, T/C (second compound 1 µM, first compound 3.16 µM)?
Answer: 1.3%

Question: What about the viability, T/C (second compound 1 µM, first compound 10 µM) of the same compound?
Answer: 1.35%

Question: What about the viability, T/C (second compound 3.16 µM, first compound 0.0316 µM) of the same compound?
Answer: 0.59%

Question: What about the viability, T/C (second compound 3.16 µM, first compound 0.1 µM) of the same compound?
Answer: 0.61%

Question: And the viability, T/C (second compound 3.16 µM, first compound 0.316 µM)?
Answer: 0.76%

Question: And the viability, T/C (second compound 3.16 µM, first compound 1 µM)?
Answer: 0.45%

Question: What about the viability, T/C (second compound 3.16 µM, first compound 3.16 µM) of the same compound?
Answer: 0.49%

Question: And the viability, T/C (second compound 3.16 µM, first compound 10 µM)?
Answer: 0.25%

Question: What about the viability, T/C (second compound 10 µM, first compound 0.0316 µM) of the same compound?
Answer: 0.16%

Question: And the viability, T/C (second compound 10 µM, first compound 0.1 µM)?
Answer: 0.16%

Question: And the viability, T/C (second compound 10 µM, first compound 0.316 µM)?
Answer: 0.19%

Question: What about the viability, T/C (second compound 10 µM, first compound 1 µM) of the same compound?
Answer: 0.26%

Question: What about the viability, T/C (second compound 10 µM, first compound 3.16 µM) of the same compound?
Answer: 0.24%

Question: What about the viability, T/C (second compound 10 µM, first compound 10 µM) of the same compound?
Answer: 0.17%
